This data set can be described thus: Particle size of spray-dried porogen powders by optical microscope. Format: physicochemical. The following applies: spray dried from ethanol solution. The source says: Citric acid and benzoic acid were spray dried from ethanol solution (10% w/v solids) using a ProCepT model 4M8 system. The citric acid was collected in a single fraction in about 65% yield, while the benzoic acid was collected in two fractions with a total yield of around 55%. The powders were characterized for particle size and morphology using an Olympus BX60 optical microscope. […] The two preparations of benzoic acid differed primarily by the preponderance of ribbon-like particles in the second fraction. The citric acid powder blend was appreciably more dense than the benzoic acid powder blends, and the latter required more careful sweeping of the feeder hopper to promote conveyance. However, the ultimate extrusion, molding, and physical handling characteristics were similar between the blends.

For the molecule `O=C(O)CC(O)(CC(=O)O)C(=O)O` [citric acid], the Particle size is on record as 10-20 μm.

For the molecule `O=C(O)c1ccccc1` [benzoic acid], the Particle size is 30-150 μm.

These data come from patent US12678400B2, “Implantable devices for drug delivery with reduced burst release” (TITAN PHARMACEUTICALS, INC., priority 2016, dated 2026).
